What all share (assay): Proliferation by impedance biosensor (RTCA DP Analyzer)
Format in all cases: cell-based

The test system of assay [1] is MDA-MB-231. To be noted: Homo sapiens, MDA-MB-231, 72 h, incubation three days, read-out: IC50 inhibitory concentration, MDA-MB-231. The protocol:
(§1) The effect of the test compounds on the proliferation of multiple cell lines was assessed in real time using the RTCA DP Analyzer (Roche, Basel, Switzerland). For this purpose, we used specialized E-plates containing wells similar in size to a standard 96-well plate, but their bottoms were covered with microelectrodes to assess impedance. When cells adhere to the microelectrodes, the impedance of the well changes, which allows us to calculate the cell index proportional to the cell number. In the experiment, cells were seeded in the E-plate at densities of 20,000 cells per milliliter (180 μL/well). At 24 h post-cell attachment, 20 μL of compounds at various test concentrations or solvent as a control were introduced, and cells were then cultured with real-time impedance registration for 5 days.

The test system of assay [2] is HCT-116. To be noted: Homo sapiens, HCT-116, 72 h, incubation three days, read-out: IC50 inhibitory concentration, HCT-116. The protocol: as §1
In assay [3] the test system is HSF. To be noted: Homo sapiens, 72 h, incubation three days, read-out: IC50 inhibitory concentration, HSF. The procedure: as §1

Regarding `COc1cccc2c1C(=O)c1c(O)c3c(c(O)c1C2=O)CC(O)(C(=O)CO)CC3OC1CC(NC(=O)/C=C/c2cnc(C)c3c2COC(C)(C)O3)C(O)C(C)O1` (stereo not drawn) [DOX-2, (E)-N-(3-hydroxy-2-methyl-6-((3,5,12-trihydroxy-3-(2-hydroxyacetyl)-10-methoxy-6,11-dioxo-1,2,3,4,6,11-hexahydrotetracen-1-yl)oxy)tetrahydro-2H-pyran-4-yl)-3-(2,2,8-trimethyl-4H-[1,3]dioxino[4,5-c]pyridin-5-yl)acrylamide], the IC50 in assay [1] was 47.6 ± 26.1 µM; in assay [2], 1.67 ± 0.02 µM; in assay [3] it was ~100 µM.

The record behind these values is publication PMC10970924 (Life, 2024).
